{"source": "patent US20090286795A1", "about": "“USE OF VASCULAR ENDOTHELIAL GROWTH FACTOR RECEPTOR INHIBITORS FOR THE TREATMENT OF CANCER” (priority 2006, published 2009)", "origin": "cited, not measured here", "settings": "studies in humans", "data": [{"smiles": "Clc1ccc(Nc2nnc(Cc3ccncc3)c3ccccc23)cc1", "note": "[PTK787, 1-(4-chloroanilino)-4-(4-pyridylmethyl)phthalazine]", "values": [{"measurement": "tolerability in humans", "value": "well tolerated"}, {"measurement": "tumor vascular permeability", "value": "reduce tumor vascular permeability"}]}]}
